The structures appear in SMILES notation. Read-outs that look alike come from different tables or passages of the source.

Here are results for 3 compounds from patent US6531476B1, “Piperazine derivatives inhibiting human immunodeficiency virus replication” (Universite Paris 7 - Denis Diderot, priority 1998, dated 2003).

The subject of data set [1] is monocyte-derived macrophages. As to the kind of experiment: Cytotoxicity: neutral red viability test on monocyte-derived macrophage cultures. Format: cell-based. Particulars: 100 μM, FIG. 3. The procedure:
The cytotoxicity of the piperazine derivatives in accordance with the invention was evaluated by measuring, by means of three different tests:
a test with neutral red, the viability of peripheral blood mononuclear cell cultures and of monocyte-derived macrophage cultures treated with the piperazine derivatives in accordance with the invention and by comparing the results obtained with those observed for “control” cultures, i.e. peripheral blood mononuclear cell cultures or monocyte-derived macrophage cultures prepared under the same conditions but in the absence of any treatment with said piperazine derivatives.
The neutral red test is also a test which is used on adherent cells and which was used to measure the effects of the piperazine derivatives in accordance with the invention on the monocyte-derived macrophages. […]
In all cases, the viability of the peripheral blood mononuclear cells and of the monocyte-derived macrophages was measured before culturing them, and then at each renewal of the culture media.

The subject of data set [2] is HIV-1/Ba-L. As to the kind of experiment: Various procedures for treating monocyte-derived macrophages (before/after infection, maintained or not). Particulars: Human immunodeficiency virus 1, BAL, Macrophage, triplicate, read-out: percentage of inhibition (I) of the viral replication. Format: cell-based. On the procedure:
Various procedures for treating monocyte-derived macrophages with the piperazine derivatives in accordance with the invention were tested using a protocol similar to that described in Example 14.
In these tests, however, the macrophage cultures were divided into three groups:
a first group (group 1 below) in which the macrophages were treated with the piperazine derivatives 24 hours before being infected with HIV (i.e. on D3) and the treatment was maintained up to D28, as described in Example 14,
a second group (group 2 below) in which the macrophages were treated 24 hours after having been infected with HIV (i.e. on D5) and the treatment was maintained up to D28, and
a third group (group 3 below) in which the macrophages were treated 24 hours before being infected with HIV (i.e. on D3), but the treatment was not subsequently maintained.
In all cases, the piperazine derivatives were used at a dose of 100 μM and the tests were carried out in triplicate.

Data set [3] deals with HIV-1/Ba-L. Put plainly: Inhibition of HIV replication in monocyte-derived macrophages (reverse transcriptase activity in culture supernatants). The following applies: dose-effect curve FIG. 1. Format: cell-based. An excerpt:
a) Production and Culturing of the Macrophages
The macrophages were obtained by differentiation of monocytes which were themselves isolated from peripheral blood mononuclear cells.
To do this, the peripheral blood mononuclear cells were separated from the other elements of the blood by centrifugation on a ficoll gradient (MSL 2000, from Eurobio) and washed twice in RPMI 1640 medium (from Boehringer Mannheim). The monocytes were isolated from these mononuclear cells by counter-current elutriation. The fractions collected were analyzed using a cell counter-analyzer (from Coulter) and the cells corresponding to each fraction were phenotyped and then analyzed using a flow cytometer (FACS, from Becton Dickinson). The purity of the monocytes thus collected is at least equal to 95%.
These monocytes were then suspended in a culture medium (medium A below) comprising RPMI 1640 medium (from Boehringer Mannheim) supplemented with 10% fetal calf serum (from Boehringer Mannheim) decomplemented beforehand by treatment at 56° C. for 30 minutes, L-glutamine (2 mM) and a solution containing 100 μg/ml of 3 antibiotics: penicillin, streptomycin and neomycin (PSN, from Life Technologies), at a rate of 1 million monocytes per ml of culture medium. […]

As to `CCN(CC)C(=O)OCC1CN(C(=S)c2cc(OC)c(OC)c(OC)c2)CCN1C(=O)c1cc(OC)c(OC)c(OC)c1` (stereo not shown), the melting point came out at 105.8 °C.
`CCN(CC)C(=O)OCC1CN(C(=O)c2cc(OC)c(OC)c(OC)c2)CCN1C(=O)c1cc(OC)c(OC)c(OC)c1` (stereo not shown) [Example 2, 1,4-bis(3′,4′,5′-trimethoxybenzoyl)-2-(N,N-diethylaminocarbonyloxymethyl)piperazine]: the “viability of monocyte-derived macrophage cultures versus control cultures (number of live cells)” value in data set [1] is reported as “no significant difference”. The inhibition at 100 µM with HIV-1/Ba-L [2] (24 h, Group 2: treated 24 hours after infection (D5), maintained up to D28, average ± standard deviation) is 88 ± 12%; in the data set on HIV-1/Ba-L [2] (Group 1: treated 24 hours before infection (D3), maintained up to D28, average ± standard deviation) it was 91 ± 2%; in the data set on HIV-1/Ba-L [2] (Group 3: treated 24 hours before infection (D3), treatment not maintained, average ± standard deviation) it was 73 ± 2%. In addition, the “doses at which inhibitory activity on HIV replication is shown” value in the data set with HIV-1/Ba-L [3] was “above 1 μM”.
For `CCN(CC)C(=O)OCC1CN(C(=O)c2cc(OC)c(OC)c(OC)c2)CCN1Cc1ccccc1.Cl` (stereo not shown) [Example 8, 1-benzyl-4-(3′,4′,5′-trimethoxybenzoyl)-2-(N,N-diethylaminocarbonyloxymethyl)piperazine hydrochloride], the melting point stood at 134 °C.

The term melting point denotes the temperature, or range, at which the solid turns liquid. Broadly, the inhibition is how much of the control response was suppressed.
